# Test results as given in ChEMBL document CHEMBL1201862, “PubChem BioAssay data set” (2004).
#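 Each compound was tested at five concentrations against cells in 96-well plates for 48 hours. GI50 marks 50% less growth.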 Activity calls are given as the source filed them. No stated cut-off is given here; in the data, active = GI50 up to about 1.1 µM and inactive = higher.
# What was measured:
# Assay in all cases: growth of human tumour cells (NCI), 48 h
# [1] = tested on: OVCAR-4
# [2] = tested on: K562
# [3] = tested on: UACC-62
# [4] = tested on: SK-MEL-2
# [5] = tested on: CCRF-CEM
# [6] = tested on: SF-295
# [7] = tested on: SK-OV-3
# [8] = tested on: HT-29
# [9] = tested on: NCI-H226
# [10] = tested on: MCF7
# [11] = tested on: HL-60
# [12] = tested on: SK-MEL-28
# [13] = tested on: M14
# [14] = tested on: HCT-15
# [15] = tested on: LOX IMVI
# [16] = tested on: HCC 2998
# [17] = tested on: 786-0
# [18] = tested on: OVCAR-3
# [19] = tested on: HOP-92
# [20] = tested on: RPMI-8226
Compound,GI50 [1],GI50 [2],GI50 [3],GI50 [4],GI50 [5],GI50 [6],GI50 [7],GI50 [8],GI50 [9],GI50 [10],GI50 [11],GI50 [12],GI50 [13],GI50 [14] [µM],GI50 [15],GI50 [16],GI50 [17],GI50 [18],GI50 [19],GI50 [20]
O=c1c2ccccc2ncn1COCc1ccccc1,> 100 µM (inactive),> 100 µM (inactive),> 100 µM (inactive),> 100 µM (inactive),> 100 µM (inactive),> 100 µM (inactive),> 100 µM (inactive),> 100 µM (inactive),> 100 µM (inactive),> 100 µM (inactive),> 100 µM (inactive),> 100 µM (inactive),> 100 µM (inactive),> 100,> 100 µM (inactive),> 100 µM (inactive),> 100 µM (inactive),> 100 µM (inactive),> 100 µM (inactive),
CCOC(=O)CNC(=O)C(CSCc1ccc(Br)cc1)NC(=O)CCC(N)C(=O)OCC (stereo not drawn),> 50 µM (inactive),> 50 µM (inactive),> 50 µM (inactive),> 50 µM (inactive),> 50 µM (inactive),> 50 µM (inactive),> 50 µM (inactive),> 50 µM (inactive),,> 50 µM (inactive),,> 50 µM (inactive),> 50 µM (inactive),> 50,,> 50 µM (inactive),> 50 µM (inactive),> 50 µM (inactive),> 50 µM (inactive),> 50 µM (inactive)
O=C1c2ccccc2C(O)(C(=O)O)C1(O)CC=C(Cl)Cl (stereo not drawn),> 125 µM (inactive),> 125 µM (inactive),> 125 µM (inactive),> 125 µM (inactive),> 125 µM (inactive),> 125 µM (inactive),> 125 µM (inactive),> 125 µM (inactive),> 125 µM (inactive),> 125 µM (inactive),> 125 µM (inactive),> 125 µM (inactive),,> 125,> 125 µM (inactive),> 125 µM (inactive),,> 125 µM (inactive),> 74.6 µM (inactive),> 125 µM (inactive)
CCOC(=O)c1csc(NC(=O)C(C)N2CCCCC2)n1 (stereo not drawn),> 100 µM (inactive),> 100 µM (inactive),> 100 µM (inactive),> 100 µM (inactive),> 100 µM (inactive),> 100 µM (inactive),> 100 µM (inactive),> 100 µM (inactive),,> 100 µM (inactive),> 100 µM (inactive),> 100 µM (inactive),> 100 µM (inactive),> 100,> 100 µM (inactive),> 100 µM (inactive),,> 100 µM (inactive),> 100 µM (inactive),> 100 µM (inactive)
Cc1c2ccncc2c(C)c2c1[nH]c1ccccc12 [ELLIPTECINE],0.802 µM (active),0.47 µM (active),1.48 µM (inactive),2.77 µM (inactive),0.411 µM (active),0.805 µM (active),1.61 µM (inactive),0.863 µM (active),1.42 µM (inactive),0.571 µM (active),0.883 µM (active),1.5 µM (inactive),,0.402,0.536 µM (active),2.68 µM (inactive),,0.322 µM (active),0.538 µM (active),0.617 µM (active)
Cc1ccc2c(O)cc(-c3sccc3C)nc2n1,9.79 µM (inactive),0.427 µM (active),0.9 µM (active),,0.635 µM (active),0.497 µM (active),1.45 µM (inactive),1.33 µM (inactive),1.38 µM (inactive),0.315 µM (active),0.174 µM (active),,0.438 µM (active),0.406,0.723 µM (active),1.02 µM (active),0.711 µM (active),0.653 µM (active),> 36.8 µM (inactive),0.444 µM (active)
COc1cccc(-c2nc(-c3cnccn3)n(Cc3ccccc3)n2)c1,21.6 µM (inactive),> 100 µM (inactive),91.4 µM (inactive),,> 100 µM (inactive),54.3 µM (inactive),75.9 µM (inactive),> 100 µM (inactive),,> 100 µM (inactive),> 100 µM (inactive),86.1 µM (inactive),> 100 µM (inactive),> 100,> 100 µM (inactive),> 100 µM (inactive),69.5 µM (inactive),> 100 µM (inactive),26.5 µM (inactive),> 100 µM (inactive)
N#Cc1nnn(-c2ccc(Br)cc2)c1O,> 100 µM (inactive),> 100 µM (inactive),> 100 µM (inactive),> 100 µM (inactive),> 100 µM (inactive),> 100 µM (inactive),> 100 µM (inactive),> 100 µM (inactive),> 100 µM (inactive),> 100 µM (inactive),> 100 µM (inactive),> 100 µM (inactive),> 100 µM (inactive),> 100,> 100 µM (inactive),> 100 µM (inactive),> 100 µM (inactive),> 100 µM (inactive),,> 100 µM (inactive)
CC1(C)CC(=O)c2c(nc3c4c([nH]c(-c5ccc([N+](=O)[O-])cc5)c24)CC(C)(C)C3)C1,34 µM (inactive),20.1 µM (inactive),21.7 µM (inactive),35.2 µM (inactive),10.1 µM (inactive),30 µM (inactive),> 100 µM (inactive),11.1 µM (inactive),43.8 µM (inactive),27.7 µM (inactive),15.6 µM (inactive),60.8 µM (inactive),27.7 µM (inactive),25.2,31.3 µM (inactive),27.5 µM (inactive),21.3 µM (inactive),85.5 µM (inactive),19.9 µM (inactive),
CN1C(=O)[C@@H]2[C@@H]3c4ccccc4N(S(=O)(=O)C(F)(F)F)[C@@H]3c3[nH]c4ccccc4c3[C@@H]2C1=O,82.4 µM (inactive),7.28 µM (inactive),> 100 µM (inactive),81.5 µM (inactive),25.2 µM (inactive),50.7 µM (inactive),> 100 µM (inactive),7.67 µM (inactive),5.52 µM (inactive),11.6 µM (inactive),,> 100 µM (inactive),,16.9,> 100 µM (inactive),> 100 µM (inactive),63.7 µM (inactive),22.6 µM (inactive),1.63 µM (inactive),8.39 µM (inactive)
C[C@]12CC[C@H](O)CC1=CC[C@@H]1[C@@H]2CC[C@]2(C)C(=O)CC[C@@H]12 [PRASTERONE],> 100 µM (inactive),,> 100 µM (inactive),> 100 µM (inactive),,> 100 µM (inactive),> 100 µM (inactive),> 100 µM (inactive),> 100 µM (inactive),> 100 µM (inactive),,> 100 µM (inactive),> 100 µM (inactive),> 100,> 100 µM (inactive),> 100 µM (inactive),> 100 µM (inactive),> 100 µM (inactive),,> 100 µM (inactive)
